From BindingDB's records for patent US20240174647 (Neuron23, 2024)

Biological target: Leucine-rich repeat serine/threonine-protein kinase 2 (Homo sapiens, UniProt Q5S007)
Assay: Biochemical Assay
Procedure: The protocol for basic TR-FRET LanthaScreen Tb Kinase Activity Assay inhibitor studies were as follows. LanthaScreen Kinase Activity Assays (ThermoFisher/USA) to evaluate inhibitors were performed by addition of 100 nL of test compound in corresponding DMSO dilutions/5 μL of kinase/fluorescein-ERM(LRRKtide) peptide mixture, 5 μL of ATP into 384 well small volume plates. After incubation for 120 minutes at room temperature, the detection reagents containing Tb-anti-pLRRKtide antibody were added to monitor phosphrylation level of peptide. Then, after 60 min minutes incubation at room temperature plates were read in Envision. Data analysis of emission ratios was according to LanthaScreen Tb Kinase Activity Assay protocol.Kinase and assay components were adjusted to final concentrations according to the kit protocol. For LRRK2: 2 nM wt human LRRK2, catalytic site, catalytic site (ThermoFisher/USA), 400 nM peptide, 38 μM ATP in 1× Kinase Buffer A.Basic protocol for TR-FRET LanthaScreen Tb Kinase Activity Assay inhibitor studies involved two steps:Enzymatic step: Addition of 100 nL of test compound in corresponding DMSO dilutions, 5 μL of kinase/substrate mixture, 5 μL of ATP into 384 well small volume plates. Incubation for 120 minutes at room temperature.Detection step: Addition of 10 μL EDTA & antibody, read plate after 60 minutes. […]

Leucine-rich repeat serine/threonine-protein kinase 2, sequence (Q5S007 whole entry): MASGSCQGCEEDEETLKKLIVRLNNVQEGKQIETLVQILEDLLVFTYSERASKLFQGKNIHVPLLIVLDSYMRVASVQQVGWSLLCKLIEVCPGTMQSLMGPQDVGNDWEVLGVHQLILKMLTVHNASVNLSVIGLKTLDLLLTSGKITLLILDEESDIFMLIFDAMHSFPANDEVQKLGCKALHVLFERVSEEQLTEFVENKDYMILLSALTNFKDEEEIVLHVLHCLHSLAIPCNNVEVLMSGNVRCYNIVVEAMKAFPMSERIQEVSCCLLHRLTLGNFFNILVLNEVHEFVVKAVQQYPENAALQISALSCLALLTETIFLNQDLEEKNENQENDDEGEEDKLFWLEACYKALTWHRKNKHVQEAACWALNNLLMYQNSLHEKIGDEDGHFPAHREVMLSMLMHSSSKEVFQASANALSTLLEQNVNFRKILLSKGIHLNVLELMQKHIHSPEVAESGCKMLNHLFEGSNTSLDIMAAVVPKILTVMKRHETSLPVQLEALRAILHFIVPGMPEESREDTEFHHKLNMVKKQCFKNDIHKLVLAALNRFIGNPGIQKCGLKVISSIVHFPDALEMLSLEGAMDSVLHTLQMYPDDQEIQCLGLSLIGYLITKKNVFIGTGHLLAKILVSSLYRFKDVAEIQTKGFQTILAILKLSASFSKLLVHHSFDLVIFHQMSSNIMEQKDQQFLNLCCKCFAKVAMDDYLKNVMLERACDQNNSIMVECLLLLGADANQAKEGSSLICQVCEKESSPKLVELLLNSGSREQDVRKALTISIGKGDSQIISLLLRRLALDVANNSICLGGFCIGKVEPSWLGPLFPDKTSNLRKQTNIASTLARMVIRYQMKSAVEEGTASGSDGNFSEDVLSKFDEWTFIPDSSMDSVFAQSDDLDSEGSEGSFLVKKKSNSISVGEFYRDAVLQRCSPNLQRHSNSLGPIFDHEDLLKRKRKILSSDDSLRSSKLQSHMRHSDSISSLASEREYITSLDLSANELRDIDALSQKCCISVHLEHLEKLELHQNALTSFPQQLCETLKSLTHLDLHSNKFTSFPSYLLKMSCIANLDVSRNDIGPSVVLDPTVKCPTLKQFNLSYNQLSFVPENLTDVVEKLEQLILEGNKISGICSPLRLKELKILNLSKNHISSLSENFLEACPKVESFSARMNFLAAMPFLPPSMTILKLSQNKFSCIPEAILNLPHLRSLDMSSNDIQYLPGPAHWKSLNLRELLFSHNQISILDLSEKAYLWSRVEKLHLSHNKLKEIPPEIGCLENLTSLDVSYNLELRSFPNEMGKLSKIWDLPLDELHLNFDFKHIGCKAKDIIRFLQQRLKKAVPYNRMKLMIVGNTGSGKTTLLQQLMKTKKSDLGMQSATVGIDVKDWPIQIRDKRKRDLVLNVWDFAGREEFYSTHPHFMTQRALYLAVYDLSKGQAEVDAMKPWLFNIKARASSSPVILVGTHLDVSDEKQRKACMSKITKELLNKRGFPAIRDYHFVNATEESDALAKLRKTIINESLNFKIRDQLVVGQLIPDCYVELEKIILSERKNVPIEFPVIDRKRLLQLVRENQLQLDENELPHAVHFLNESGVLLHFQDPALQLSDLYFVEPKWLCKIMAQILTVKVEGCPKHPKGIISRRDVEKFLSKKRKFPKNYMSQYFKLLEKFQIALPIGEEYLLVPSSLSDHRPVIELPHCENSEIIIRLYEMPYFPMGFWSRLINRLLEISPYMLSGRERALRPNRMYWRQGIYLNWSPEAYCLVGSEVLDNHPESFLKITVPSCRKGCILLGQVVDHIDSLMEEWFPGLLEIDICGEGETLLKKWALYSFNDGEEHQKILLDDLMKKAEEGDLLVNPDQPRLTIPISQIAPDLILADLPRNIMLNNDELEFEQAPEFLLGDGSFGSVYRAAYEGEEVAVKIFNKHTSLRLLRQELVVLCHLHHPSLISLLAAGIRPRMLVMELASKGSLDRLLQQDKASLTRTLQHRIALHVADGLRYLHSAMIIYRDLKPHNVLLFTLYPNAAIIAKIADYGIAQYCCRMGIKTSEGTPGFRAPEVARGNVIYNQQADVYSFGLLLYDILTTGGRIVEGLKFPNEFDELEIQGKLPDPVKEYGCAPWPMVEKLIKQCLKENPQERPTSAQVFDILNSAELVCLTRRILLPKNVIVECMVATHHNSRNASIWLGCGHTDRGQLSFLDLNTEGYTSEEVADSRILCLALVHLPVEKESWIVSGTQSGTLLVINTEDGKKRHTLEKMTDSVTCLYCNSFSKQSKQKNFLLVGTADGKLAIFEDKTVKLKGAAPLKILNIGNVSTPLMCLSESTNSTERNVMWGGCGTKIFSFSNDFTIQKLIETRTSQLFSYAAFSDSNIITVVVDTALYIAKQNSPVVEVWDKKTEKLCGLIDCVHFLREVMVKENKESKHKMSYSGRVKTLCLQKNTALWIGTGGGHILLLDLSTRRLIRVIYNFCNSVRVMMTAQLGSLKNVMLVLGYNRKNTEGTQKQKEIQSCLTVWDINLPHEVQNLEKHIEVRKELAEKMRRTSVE

CNc1nc(Nc2ccc(F)c3[nH]ncc23)ncc1C(F)(F)F [US20240174647, Example 27]
IC50: < 50 nM
